Source: US20200392158A1, “INHIBITORS OF LEUCINE RICH REPEAT KINASE 2” (GLAXOSMITHKLINE INTELLECTUAL PROPERTY DEVELOPMENT LIMITED, priority 2017, published 2020)

Experiments:
[1] = biological target: T1, full length G2019 human LRRK2 (Homo sapiens, UniProt Q5S007, R50H); experiment: Full length G2019 human LRRK2 inhibition mass spectrometry assay; format: biochemical; settings: LRRKtide to phospho-LRRKtide conversion, RapidFire MS, 2 mM ATP
T1 construct: made in house; host or cells: HEK293 6E cells transduced with BacMam virus (virus generated in Sf9 cells)
How it was run: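 Purified full-length Flag-tagged G2019 LRRK2, ~25 nM, with 25 μM LRRKtide and 2 mM ATP in 50 mM Hepes pH 7.2, 10 mM MgCl2, 150 mM NaCl, 1 h at room temperature. Quenched with formic acid; phospho- and unphosphorylated LRRKtide measured by RapidFire MS. pIC50 from 4-parameter fit of % conversion, 11 points, top 100 μM.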

[2] = biological target: T2, LRRK2 kinase in SH-SY5Y cells over-expressing recombinant full length LRRK2 (Homo sapiens, UniProt Q5S007); experiment: Recombinant cellular LRRK2 AlphaScreen assay (LRRK2 Ser935 phosphorylation); format: cell-based; settings: 60 min
T2 construct: A BacMam virus expressing full length recombinant LRRK2 was purchased from Invitrogen; host or cells: SH-SY5Y human neuroblastoma cells transduced with BacMam LRRK2 virus
How it was run: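 SH-SY5Y cells transduced with BacMam full-length LRRK2 (MOI 50) for 24 h, then treated 60 min at 37 °C with compound (11-point 1:4 series, top 10 uM, 0.1% DMSO). Lysates probed by AlphaScreen for pSer935 vs total LRRK2; values fitted to a sigmoidal dose-response model.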

T1 sequence (Q5S007 with tags, fused parts or gaps R50H): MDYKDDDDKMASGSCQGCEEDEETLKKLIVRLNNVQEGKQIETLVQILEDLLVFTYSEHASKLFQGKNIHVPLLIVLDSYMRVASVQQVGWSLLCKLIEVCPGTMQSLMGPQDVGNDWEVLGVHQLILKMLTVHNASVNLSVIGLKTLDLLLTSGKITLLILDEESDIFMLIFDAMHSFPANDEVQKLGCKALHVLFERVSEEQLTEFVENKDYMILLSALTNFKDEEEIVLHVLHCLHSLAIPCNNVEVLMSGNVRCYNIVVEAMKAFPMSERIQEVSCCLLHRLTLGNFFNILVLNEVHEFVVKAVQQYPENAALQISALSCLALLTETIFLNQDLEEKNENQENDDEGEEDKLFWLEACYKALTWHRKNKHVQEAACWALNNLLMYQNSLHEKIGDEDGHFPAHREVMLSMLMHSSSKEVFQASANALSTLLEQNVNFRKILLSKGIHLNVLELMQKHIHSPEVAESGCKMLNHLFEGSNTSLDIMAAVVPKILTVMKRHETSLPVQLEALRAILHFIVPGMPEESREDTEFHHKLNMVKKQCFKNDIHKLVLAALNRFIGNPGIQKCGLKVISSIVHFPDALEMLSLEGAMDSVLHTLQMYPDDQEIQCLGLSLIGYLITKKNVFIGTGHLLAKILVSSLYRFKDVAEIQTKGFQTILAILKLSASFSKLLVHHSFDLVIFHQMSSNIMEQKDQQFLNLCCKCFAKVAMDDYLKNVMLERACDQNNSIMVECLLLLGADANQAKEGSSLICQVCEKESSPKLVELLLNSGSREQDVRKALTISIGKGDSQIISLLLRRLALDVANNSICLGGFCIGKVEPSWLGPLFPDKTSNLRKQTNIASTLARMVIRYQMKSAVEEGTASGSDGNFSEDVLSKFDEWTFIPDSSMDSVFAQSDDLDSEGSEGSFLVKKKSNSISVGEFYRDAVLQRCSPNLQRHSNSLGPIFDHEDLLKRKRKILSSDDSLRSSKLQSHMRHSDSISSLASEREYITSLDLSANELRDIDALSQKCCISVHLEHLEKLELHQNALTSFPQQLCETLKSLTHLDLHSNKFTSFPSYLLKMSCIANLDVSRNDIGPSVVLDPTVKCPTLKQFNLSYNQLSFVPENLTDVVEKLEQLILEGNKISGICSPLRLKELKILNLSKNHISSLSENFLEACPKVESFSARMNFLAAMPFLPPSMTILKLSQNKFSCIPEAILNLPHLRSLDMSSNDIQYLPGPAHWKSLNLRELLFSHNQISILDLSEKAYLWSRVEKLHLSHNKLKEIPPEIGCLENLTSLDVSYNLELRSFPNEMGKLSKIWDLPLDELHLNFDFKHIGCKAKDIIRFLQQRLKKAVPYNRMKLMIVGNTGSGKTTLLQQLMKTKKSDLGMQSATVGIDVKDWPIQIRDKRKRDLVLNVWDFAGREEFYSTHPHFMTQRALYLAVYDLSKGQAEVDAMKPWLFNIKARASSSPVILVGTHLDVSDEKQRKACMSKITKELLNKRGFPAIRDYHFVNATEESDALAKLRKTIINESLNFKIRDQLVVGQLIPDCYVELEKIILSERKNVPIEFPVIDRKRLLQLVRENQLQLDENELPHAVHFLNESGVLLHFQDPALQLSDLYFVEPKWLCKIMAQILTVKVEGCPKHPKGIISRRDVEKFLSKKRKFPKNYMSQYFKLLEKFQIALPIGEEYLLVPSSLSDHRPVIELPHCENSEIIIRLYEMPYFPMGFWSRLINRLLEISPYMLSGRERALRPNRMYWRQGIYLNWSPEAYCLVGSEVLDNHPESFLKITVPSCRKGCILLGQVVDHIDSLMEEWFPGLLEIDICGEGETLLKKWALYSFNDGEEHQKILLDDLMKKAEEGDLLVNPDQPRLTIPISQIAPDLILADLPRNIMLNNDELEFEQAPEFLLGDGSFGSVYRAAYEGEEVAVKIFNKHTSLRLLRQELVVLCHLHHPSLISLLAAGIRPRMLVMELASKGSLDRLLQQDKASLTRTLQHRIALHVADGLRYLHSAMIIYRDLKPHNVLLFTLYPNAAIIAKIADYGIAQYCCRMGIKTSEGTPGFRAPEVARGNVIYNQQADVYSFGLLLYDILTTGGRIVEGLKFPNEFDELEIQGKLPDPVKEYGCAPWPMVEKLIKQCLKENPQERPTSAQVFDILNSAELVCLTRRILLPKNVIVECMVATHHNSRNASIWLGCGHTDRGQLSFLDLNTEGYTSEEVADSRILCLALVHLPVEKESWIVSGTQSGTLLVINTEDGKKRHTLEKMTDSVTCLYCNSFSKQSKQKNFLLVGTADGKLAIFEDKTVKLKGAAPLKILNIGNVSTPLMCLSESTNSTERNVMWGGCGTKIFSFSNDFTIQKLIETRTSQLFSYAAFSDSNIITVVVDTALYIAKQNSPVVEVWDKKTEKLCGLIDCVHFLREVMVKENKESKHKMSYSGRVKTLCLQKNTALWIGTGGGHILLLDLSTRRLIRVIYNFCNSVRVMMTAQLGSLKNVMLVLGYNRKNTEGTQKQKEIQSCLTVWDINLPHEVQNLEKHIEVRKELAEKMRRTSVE
T2 sequence (Q5S007 whole entry): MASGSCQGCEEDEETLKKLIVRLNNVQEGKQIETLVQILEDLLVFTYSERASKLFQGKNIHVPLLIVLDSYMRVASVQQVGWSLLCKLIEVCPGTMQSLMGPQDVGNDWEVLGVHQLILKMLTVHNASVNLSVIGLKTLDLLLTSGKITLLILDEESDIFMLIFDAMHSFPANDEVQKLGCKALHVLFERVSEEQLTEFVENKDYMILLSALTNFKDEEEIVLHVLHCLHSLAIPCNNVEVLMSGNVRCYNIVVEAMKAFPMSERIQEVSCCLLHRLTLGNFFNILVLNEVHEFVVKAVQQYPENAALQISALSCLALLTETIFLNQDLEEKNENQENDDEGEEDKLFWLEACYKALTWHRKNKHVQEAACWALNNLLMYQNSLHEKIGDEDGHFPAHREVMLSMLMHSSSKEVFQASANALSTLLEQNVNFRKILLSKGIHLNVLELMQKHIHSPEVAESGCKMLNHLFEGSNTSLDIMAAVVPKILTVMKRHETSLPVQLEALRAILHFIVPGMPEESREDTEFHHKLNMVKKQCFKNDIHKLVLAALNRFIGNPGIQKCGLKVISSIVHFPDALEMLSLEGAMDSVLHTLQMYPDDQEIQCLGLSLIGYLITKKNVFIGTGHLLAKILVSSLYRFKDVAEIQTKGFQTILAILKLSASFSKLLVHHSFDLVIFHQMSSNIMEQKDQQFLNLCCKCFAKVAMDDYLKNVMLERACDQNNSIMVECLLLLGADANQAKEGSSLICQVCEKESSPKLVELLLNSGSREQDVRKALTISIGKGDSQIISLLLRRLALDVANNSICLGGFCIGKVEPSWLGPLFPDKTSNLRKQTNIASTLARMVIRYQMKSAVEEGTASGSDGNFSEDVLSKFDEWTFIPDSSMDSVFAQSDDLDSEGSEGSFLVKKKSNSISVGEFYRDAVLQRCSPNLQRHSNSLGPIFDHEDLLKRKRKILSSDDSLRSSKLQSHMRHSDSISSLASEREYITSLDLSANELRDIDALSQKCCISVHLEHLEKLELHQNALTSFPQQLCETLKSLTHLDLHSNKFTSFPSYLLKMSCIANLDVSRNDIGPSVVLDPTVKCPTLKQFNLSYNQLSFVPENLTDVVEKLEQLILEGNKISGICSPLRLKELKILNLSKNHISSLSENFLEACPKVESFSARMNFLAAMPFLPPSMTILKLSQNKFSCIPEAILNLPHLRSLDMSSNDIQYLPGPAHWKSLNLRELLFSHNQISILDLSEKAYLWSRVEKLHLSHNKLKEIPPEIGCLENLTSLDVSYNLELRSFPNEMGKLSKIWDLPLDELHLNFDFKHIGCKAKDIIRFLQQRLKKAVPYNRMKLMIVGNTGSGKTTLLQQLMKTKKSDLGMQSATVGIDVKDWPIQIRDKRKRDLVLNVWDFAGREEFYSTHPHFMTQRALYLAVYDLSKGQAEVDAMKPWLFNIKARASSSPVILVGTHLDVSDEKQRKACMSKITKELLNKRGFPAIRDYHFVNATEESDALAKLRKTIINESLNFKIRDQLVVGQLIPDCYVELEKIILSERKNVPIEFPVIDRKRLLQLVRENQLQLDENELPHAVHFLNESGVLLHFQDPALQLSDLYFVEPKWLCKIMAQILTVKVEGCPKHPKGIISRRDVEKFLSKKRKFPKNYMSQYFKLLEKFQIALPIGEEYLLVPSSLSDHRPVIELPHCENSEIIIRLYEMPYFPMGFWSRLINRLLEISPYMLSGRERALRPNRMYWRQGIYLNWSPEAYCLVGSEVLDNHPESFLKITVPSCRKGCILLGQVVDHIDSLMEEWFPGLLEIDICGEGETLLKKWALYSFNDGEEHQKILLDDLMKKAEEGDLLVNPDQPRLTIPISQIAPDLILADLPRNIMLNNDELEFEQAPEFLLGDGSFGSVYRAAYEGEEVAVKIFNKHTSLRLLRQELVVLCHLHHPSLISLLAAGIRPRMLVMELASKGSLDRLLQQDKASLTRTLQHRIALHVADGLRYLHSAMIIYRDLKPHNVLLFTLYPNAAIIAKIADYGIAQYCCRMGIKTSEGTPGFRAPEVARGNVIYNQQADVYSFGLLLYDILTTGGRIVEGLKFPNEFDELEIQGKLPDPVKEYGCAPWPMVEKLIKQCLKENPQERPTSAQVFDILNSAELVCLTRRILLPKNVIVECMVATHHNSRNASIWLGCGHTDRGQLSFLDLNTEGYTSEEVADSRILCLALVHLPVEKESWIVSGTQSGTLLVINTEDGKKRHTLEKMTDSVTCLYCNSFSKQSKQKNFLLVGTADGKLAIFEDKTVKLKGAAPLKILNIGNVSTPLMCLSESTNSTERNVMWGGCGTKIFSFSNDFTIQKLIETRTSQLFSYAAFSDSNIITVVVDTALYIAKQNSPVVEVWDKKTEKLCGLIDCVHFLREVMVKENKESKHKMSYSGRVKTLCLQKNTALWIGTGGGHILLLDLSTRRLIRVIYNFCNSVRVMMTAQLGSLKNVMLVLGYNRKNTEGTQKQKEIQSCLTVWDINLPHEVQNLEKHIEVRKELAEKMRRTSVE

| SMILES | IC50 [1] [nM] | IC50 [2] [nM] |
| --- | --- | --- |
| Cc1c2c(nn1C1CCOCC1)OCCC(C)Nc1nc(ncc1Cl)N2 (centres unmarked) [E5, 14-Chloro-4,11-dimethyl-5-(oxan-4-yl)-8-oxa-2,5,6,12,16,17-hexaazatricyclo [11.3.1.0^3,7]heptadeca-1(16),3,6,13(17),14-pentaene] | ≤ 100 | ≤ 100 |
| Cc1c2c(nn1C1CCC(N3C[C@@H]4C[C@H]3CO4)CC1)OCCC(C)Nc1nc(ncc1Cl)N2 (single isomer, unassigned) [E104] | ≤ 100 | ≤ 100 |
| COCC1CCOc2nn(C3CCOCC3)c(C)c2Nc2ncc(Cl)c(n2)N1 (single isomer, unassigned) [E35, 14-chloro-11-(methoxymethyl)-4-methyl-5-(oxan-4-yl)-8-oxa-2,5,6, 12,16,17-hexaazatricyclo-[11.3.1.0^3,7]heptadeca-1(16),3,6,13(17),14-pentaene] | ≤ 100 | ≤ 100 |
| Cc1c2c(nn1C1CCOCC1)OCC(C)C(C)Nc1nc(ncc1Cl)N2 (single isomer, unassigned) [E32, 14-chloro-4,10,11-trimethyl-5-(oxan-4-yl)-8-oxa-2,5,6,12,16,17-hexaazatricyclo [11.3.1.0^3,7]heptadeca-1(16),3,6,13(17),14-pentaene] | ≤ 100 | ≤ 100 |
| Cc1c2c(nn1C1CCC(O)CC1)OCCCNc1nc(ncc1Cl)N2 (single isomer, unassigned) [E90, 4-{14-chloro-4-methyl-8-oxa-2,5,6,12,16,17-hexaazatricyclo[11.3.1.0^3,7]heptadeca-1(16),3,6,13(17),14-pentaen-5-yl}cyclohexan-1-ol] | ≤ 100 | ≤ 100 |
| Cc1c2c(nn1C1COC1)OCCCNc1nc(ncc1Cl)N2 [E12, 14-Chloro-4-methyl-5-(oxetan-3-yl)-8-oxa-2,5,6,12,16,17-hexaazatricyclo[11.3.1.0^3,7]heptadeca-1(16),3,6,13(17),14-pentaene] | ≤ 100 | ≤ 100 |
| Cc1c2c(nn1C1CCCN(C3COC3)C1)OCC[C@@H](C)Nc1nc(ncc1Cl)N2 (single isomer, unassigned) [E67] | ≤ 100 | ≤ 100 |
| Cc1c2c(nn1C1CCOCC1)OCC(C)CNc1nc(ncc1Cl)N2 (single isomer, unassigned) [E136, 14-chloro-4,10-dimethyl-5-(oxan-4-yl)-8-oxa-2,5,6,12,16,17-hexaazatricyclo[11.3.1.0^3,7]heptadeca-1(16),3,6,13(17),14-pentaene] | ≤ 100 | ≤ 100 |
| Cc1c2c(nn1C1CCN(C3COC3)CC1)OCC[C@@H](C)Nc1nc(ncc1Cl)N2 [E65, (11R)-14-chloro-4,11-dimethyl-5-[1-(oxetan-3-yl)piperidin-4-yl]-8-oxa-2,5,6,12,16,17-hexaazatricyclo[11.3.1.0^3,7]heptadeca-1(16),3,6,13(17),14-pentaene] | ≤ 100 | ≤ 100 |
| Cc1c2c(nn1C1CC(N3CCOCC3)C1)OCC[C@@H](C)Nc1nc(ncc1Cl)N2 (stereo partly drawn) [E106, (11R)-14-chloro-4,11-dimethyl-5-[3-(morpholin-4-yl)cyclobutyl]-8-oxa-2,5,6,12,16,17-hexaazatricyclo[11.3.1.0^3,7]heptadeca-1(16),3,6,13(17),14-pentaene] | ≤ 100 | ≤ 100 |
| Cc1c2c(nn1C1CCOCC1)OCCCNc1nc(ncc1Cl)N2 [E1, 14-Chloro-4-methyl-5-(oxan-4-yl)-8-oxa-2,5,6,12,16,17-hexaazatricyclo [11.3.1.0^3,7]heptadeca-1(16),3,6,13(17),14-pentaene] | ≤ 100 | ≤ 100 |

More lines, now with the values ahead:

| IC50 [1] [nM] | IC50 [2] [nM] | SMILES |
| --- | --- | --- |
| ≤ 100 | ≤ 100 | Cc1c2c(nn1CCN1C[C@H]3C[C@@H]1CO3)OCCC(C)Nc1nc(ncc1Cl)N2 (single isomer, unassigned) [E208] |
| ≤ 100 | ≤ 100 | Cc1c2c(nn1C1CCCOC1)OCC(C)CNc1nc(ncc1Cl)N2 (single isomer, unassigned) [E306, 14-Chloro-4,10-dimethyl-5-(oxan-3-yl)-8-oxa-2,5,6,12,16,17-hexaazatricyclo[11.3.1.0^3,7]heptadeca-1(16),3,6, 13(17),14-pentaene] |
| ≤ 100 | ≤ 100 | Cc1c2c(nn1C1CCOCC1(C)C)OCC[C@@H](C)Nc1nc(ncc1Cl)N2 (stereo partly drawn) [E421, (11R)-14-Chloro-5-(3,3-dimethyloxan-4-yl)-4,11-dimethyl-8-oxa-2,5,6,12,16,17-hexaazatricyclo[11.3.1.0^3,7]heptadeca-1(16),3,6,13(17),14-pentaene] |
| ≤ 100 | ≤ 100 | C[C@@H]1CCOc2nn(C3CCN(C4COC4)CC3(F)F)c(Cl)c2Nc2ncc(Cl)c(n2)N1 (single isomer, unassigned) [E444] |
| ≤ 100 | ≤ 100 | Cc1c2c(nn1CC(C)(C)O)OCCC(C)Nc1nc(ncc1Cl)N2 (single isomer, unassigned) [E265, 1-{14-Chloro-4,11-dimethyl-8-oxa-2,5,6,12,16,17-hexaazatricyclo[11.3.1.0^3,7]heptadeca-1(17),3,6,13,15-pentaen-5-yl}-2-methylpropan-2-ol] |
| ≤ 100 | ≤ 100 | Cc1[nH]nc2c1Nc1ncc(Cl)c(n1)N[C@H](C)CCO2 [E394, (11R)-14-Chloro-4,11-dimethyl-8-oxa-2,5,6,12,16,17-hexaazatricyclo[11.3.1.0^3,7]heptadeca-1(16),3,6,13(17),14-pentaene] |
| ≤ 100 | ≤ 100 | Cc1c2c(nn1C1CCOC(C)C1)OCCC(C(F)F)Nc1nc(ncc1Cl)N2 (centres unmarked) [E386, 14-Chloro-11-(difluoromethyl)-4-methyl-5-(2-methyloxan-4-yl)-8-oxa-2,5,6,12,16,17-hexaazatricyclo[11.3.1.0^3,7]heptadeca-1(16),3,6,13(17),14-pentaene] |
| ≤ 100 | ≤ 100 | Cc1c2c(nn1C1CC(N3C[C@H]4C[C@@H]3CO4)C1)OCC[C@@H](C)Nc1nc(ncc1Cl)N2 (stereo partly drawn) [E317, (11R)-14-Chloro-4,11-dimethyl-5-{3-[(1R,4R)-2-oxa-5-azabicycle [2.2.1]heptan-5-yl]cyclobutyl}-8-oxa-2,5,6,12,16,17-hexaaza tricyclo[11.3.1.0^3,7]heptadeca-1(16),3,6,13(17),14-pentaene] |
| ≤ 100 | ≤ 100 | Cc1c2c(nn1C1CCC(N3CCOCC3)C1)OCCCNc1nc(ncc1Cl)N2 (single isomer, unassigned) [E369, 14-Chloro-4-methyl-5-[3-(morpholin-4-yl)cyclopentyl]-8-oxa-2,5,6,12,16,17-hexaazatricyclo[11.3.1.0^3,7] heptadeca-1(16),3,6,13(17),14-pentaene] |
| ≤ 10000 | ≤ 100 | Cc1c2c(nn1C(=O)C1CCOCC1)OCCCNc1nc(ncc1Cl)N2 [E363, 14-Chloro-4-methyl-5-(oxane-4-carbonyl)-8-oxa-2,5,6,12,16,17-hexaazatricyclo[11.3.1.0^3,7]heptadeca-1(16),3,6,13(17),14-pentaene] |
| ≤ 100 | ≤ 100 | C[C@@H]1CCOc2nn(C3CN(C4COC4)C3)c(Cl)c2Nc2ncc(Cl)c(n2)N1 [E427, (11R)-4,14-Dichloro-11-methyl-5-[1-(oxetan-3-yl)azetidin-3-yl]-8-oxa-2,5,6,12,16,17-hexaazatricyclo[11.3.1.0^3,7]heptadeca-1(16),3,6,13(17),14-pentaene] |
